According to patent publication US20230286958A1, “PLASMA KALLIKREIN INHIBITORS” (Merck Sharp & Dohme LLC, priority 2020, published 2023):

Key:
Human plasma kallikrein = Human plasma kallikrein (Homo sapiens (Human), UniProt P03952); assay: Kallikrein Assay (fluorogenic substrate Acetyl-K-P-R-AFC); assay type: biochemical; conditions: Plasma Kallikrein (PKal)
Procedure, shortened: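 Ki is derived from IC50 with the Cheng-Prusoff equation, and IC50 from the inflection point of a four-parameter logistic curve. The rate of AFC release is read with 0.5 nM purified enzyme and […] substrate at room temperature or 37 °C.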

human Factor XIa = human Factor XIa (Homo sapiens (Human), UniProt P03951); assay: Factor XIa Assay (fluorogenic substrate GPR-AFC); assay type: biochemical; conditions: Factor XIa (FXIa)
human Factor XIa, sequence (P03951 388-625 limits assumed): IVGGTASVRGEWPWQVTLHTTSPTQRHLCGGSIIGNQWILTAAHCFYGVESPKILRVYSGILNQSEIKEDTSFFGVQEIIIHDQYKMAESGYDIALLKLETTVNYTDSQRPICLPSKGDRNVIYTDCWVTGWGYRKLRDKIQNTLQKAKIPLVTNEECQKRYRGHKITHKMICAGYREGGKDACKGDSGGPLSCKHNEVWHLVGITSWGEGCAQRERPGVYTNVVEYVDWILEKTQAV
human Factor XIa, sequence (P03951 19-387 partner limits assumed): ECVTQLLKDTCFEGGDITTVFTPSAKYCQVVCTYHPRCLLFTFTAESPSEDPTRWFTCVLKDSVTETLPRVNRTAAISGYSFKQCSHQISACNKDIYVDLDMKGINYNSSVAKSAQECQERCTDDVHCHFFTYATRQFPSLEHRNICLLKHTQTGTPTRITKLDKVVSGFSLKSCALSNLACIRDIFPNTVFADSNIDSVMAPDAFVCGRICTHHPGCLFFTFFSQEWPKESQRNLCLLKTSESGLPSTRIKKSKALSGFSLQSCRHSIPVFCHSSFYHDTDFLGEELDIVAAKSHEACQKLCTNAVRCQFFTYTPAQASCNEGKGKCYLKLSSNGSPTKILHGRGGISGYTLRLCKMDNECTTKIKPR

Human plasma kallikrein, sequence (P03952 391-638): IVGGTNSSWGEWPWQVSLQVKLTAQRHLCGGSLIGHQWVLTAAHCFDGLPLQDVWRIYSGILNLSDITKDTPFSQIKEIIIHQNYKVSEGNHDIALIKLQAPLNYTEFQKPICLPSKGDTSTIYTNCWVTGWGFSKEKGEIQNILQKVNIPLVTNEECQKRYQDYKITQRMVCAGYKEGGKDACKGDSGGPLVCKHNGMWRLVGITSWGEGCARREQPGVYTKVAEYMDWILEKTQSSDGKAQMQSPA
Human plasma kallikrein, sequence (P03952 20-390 partner): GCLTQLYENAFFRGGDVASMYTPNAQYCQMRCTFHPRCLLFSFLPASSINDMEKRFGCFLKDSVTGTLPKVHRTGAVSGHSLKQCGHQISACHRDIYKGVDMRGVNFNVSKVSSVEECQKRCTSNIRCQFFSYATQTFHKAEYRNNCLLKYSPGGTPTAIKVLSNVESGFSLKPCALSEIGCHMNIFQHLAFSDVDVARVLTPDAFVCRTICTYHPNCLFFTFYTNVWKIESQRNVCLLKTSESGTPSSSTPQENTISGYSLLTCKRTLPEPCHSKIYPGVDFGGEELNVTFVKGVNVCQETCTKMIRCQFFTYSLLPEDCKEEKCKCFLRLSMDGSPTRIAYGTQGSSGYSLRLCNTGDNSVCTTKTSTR

Compound | IC50 (Human plasma kallikrein) [nM] | IC50 (human Factor XIa) [nM]
Cc1ncc(-c2c(C(F)F)ccc(Cl)c2F)nc1C(=O)Nc1cnn([C@@H](C)c2cnc(N3C[C@H]4C[C@H]4C3=O)c(O)c2)c1 [Example 217, 6-(3-Chloro-6-(difluoromethyl)-2-fluorophenyl)-N-(1-((S)-1-(5-hydroxy-6-((1R,5S)-2-oxo-3-azabicyclo[3.1.0]hexan-3-yl)pyridin-3-yl)ethyl)-1H-pyrazol-4-yl)-3-methylpyrazine-2-carboxamide] | 14.9 | 4150
Cc1ncc(-c2c(C(F)F)ccc(Cl)c2F)nc1C(=O)Nc1cnn(C2(c3cnc(N4C[C@H]5C[C@H]5C4=O)c(C)n3)CC2)c1 [Example 220, 6-(3-Chloro-6-(difluoromethyl)-2-fluorophenyl)-3-methyl-N-(1-(1-(6-methyl-5-((1R,5S)-2-oxo-3-azabicyclo[3.1.0]hexan-3-yl)pyrazin-2-yl)cyclopropyl)-1H-pyrazol-4-yl)pyrazine-2-carboxamide] | 7.8 | > 10000
COCc1ncc(-c2c(C(F)F)ccc(Cl)c2F)nc1C(=O)Nc1cnn(C2(c3cnc(N4C[C@H]5C[C@H]5C4=O)c(C)n3)CC2)c1 [Example 221, 6-(3-Chloro-6-(difluoromethyl)-2-fluorophenyl)-3-(methoxymethyl)-N-(1-(1-(6-methyl-5-((1R,5S)-2-oxo-3-azabicyclo[3.1.0]hexan-3-yl)pyrazin-2-yl)cyclopropyl)-1H-pyrazol-4-yl)pyrazine-2-carboxamide] | 14.9 | > 10000
Cc1nc(C2(n3cc(NC(=O)c4nc(-c5c(C(F)F)ccc(Cl)c5F)cnc4COC(C)(C)C)cn3)CC2)cnc1N1C[C@H]2C[C@H]2C1=O [Example 222, 3-(tert-Butoxymethyl)-6-(3-chloro-6-(difluoromethyl)-2-fluorophenyl)-N-(1-(1-(6-methyl-5-((1R,5S)-2-oxo-3-azabicyclo[3.1.0]hexan-3-yl)pyrazin-2-yl)cyclopropyl)-1H-pyrazol-4-yl)pyrazine-2-carboxamide] | 16.7 | > 10000
Cc1nc(C2(n3cc(NC(=O)c4nc(-c5c(C(F)F)ccc(Cl)c5F)cnc4CO)cn3)CC2)cnc1N1C[C@H]2C[C@H]2C1=O [Example 223, 6-(3-Chloro-6-(difluoromethyl)-2-fluorophenyl)-3-(hydroxymethyl)-N-(1-(1-(6-methyl-5-((1R,5S)-2-oxo-3-azabicyclo[3.1.0]hexan-3-yl)pyrazin-2-yl)cyclopropyl)-1H-pyrazol-4-yl)pyrazine-2-carboxamide] | 1 | 1840
Cc1cc([C@H](C)n2cc(NC(=O)c3nc(-c4c(OC(F)F)ccc(Cl)c4F)cnc3CO)cn2)cnc1N1C[C@H]2C[C@H]2C1=O [Example 226] | 0.4 | 41
Cc1cc([C@@H](C)n2cc(NC(=O)c3nc(-c4c(OC(F)F)ccc(Cl)c4F)cnc3CO)cn2)cnc1N1C[C@H]2C[C@H]2C1=O [Example 227, 6-(3-Chloro-6-(difluoromethoxy)-2-fluorophenyl)-3-(hydroxymethyl)-N-(1-((R)-1-(5-methyl-6-((1R,5S)-2-oxo-3-azabicyclo[3.1.0]hexan-3-yl)pyridin-3-yl)ethyl)-1H-pyrazol-4-yl)pyrazine-2-carboxamide] | 0.6 | 25
CCc1ncc(-c2c(C(F)F)ccc(Cl)c2F)nc1C(=O)Nc1cnn(Cc2cc(C)c(N3C[C@H]4C[C@H]4C3=O)nn2)c1 [Example 233, 6-(3-Chloro-6-(difluoromethyl)-2-fluorophenyl)-3-ethyl-N-(1-((5-methyl-6-((1R,5S)-2-oxo-3-azabicyclo[3.1.0]hexan-3-yl)pyridazin-3-yl)methyl)-1H-pyrazol-4-yl)pyrazine-2-carboxamide] | 19.7 | 1200
CCc1ncc(-c2c(C(F)F)ccc(Cl)c2F)nc1C(=O)Nc1cnn(Cc2cnc(N3C[C@H]4C[C@H]4C3=O)c3c2OCO3)c1 [Example 255, 6-(3-Chloro-6-(difluoromethyl)-2-fluorophenyl)-3-ethyl-N-(1-((4-((1R,5S)-2-oxo-3-azabicyclo[3.1.0]hexan-3-yl)-[1,3]dioxolo[4,5-c]pyridin-7-yl)methyl)-1H-pyrazol-4-yl)pyrazine-2-carboxamide] | 2.6 | 734
